Data on two compounds can be found in publication PMC5926202, “Creation of a nanoformulated cabotegravir prodrug with improved antiretroviral profiles” (Biomaterials, 2017).

Molecules are shown by their SMILES. Converted amounts (≈) assume the structure as drawn.

Series [1] concerns HIV-1ADA in human monocyte derived macrophages (MDM). Kind of series: Antiretroviral activity of CAB and MCAB in HIV-1ADA infected MDM (HIV RT activity). The format is cell-based. To be noted: Human immunodeficiency virus 1, 168 h, HIV-1ADA MOI 0.1, MDM, 7 days after challenge.
Experimental: (E) Antiretroviral activities of CAB and MCAB were evaluated in HIV-1ADA infected human monocyte derived macrophages (MDM). Inhibition rate was presented as percentage of reduced HIV reverse transcriptase (RT) activity as compared to positive control RT activity. Nonlinear regression was performed using log (drug concentration) vs. Inhibition rate with variable slope, and drug concentration for 50% inhibition (IC50) was calculated. […] Data are expressed as mean ± SD for n= 6 samples per group.
Monocyte-derived macrophages (MDM) were utilized. […] Briefly, monocytes were obtained by leukapheresis of HIV-1/2 and hepatitis B seronegative donor blood cells, followed by purification via countercurrent centrifugal elutriation. Elutriated monocytes were cultured as adherent cells in DMEM supplemented with 10% heat-inactivated pooled human serum, 10 µg/mL ciprofloxacin, 50 µg/mL gentamicin, and 1000 U/mL recombinant macrophage colony stimulating factor. Cells were maintained at 37 °C in a 5% CO2 incubator. Seven days later, differentiated macrophages were treated with various concentrations (0.06–1000 nM) of native CAB or MCAB for 30 min, followed by HIV-1ADA challenge at a multiplicity of infection (MOI) of 0.1 infectious viral particles/cell. […]
Series [2] in a line: Solubility test in water and 1-octanol. The format is physicochemical. To be noted: room temperature; for solubility at 24 h: water, thermodynamic from solid, 24 h mixing. The procedure: The solubilities of CAB and MCAB in water and 1-octanol were determined by adding excess drug to each solution at room temperature then mixing for 24 h. Samples were centrifuged at 20,000 × g for 10 min to pellet insoluble drug. The supernatants containing solubilized drug were vacuum-dried then re-dispersed in methanol for drug concentration measurement using a Waters ACQUITY ultra performance liquid chromatography (UPLC) H-Class System with TUV detector and Empower 3 software (Milford, MA, USA). […] Drug content was quantitated by comparison of peak area to those of known standards (0.05–50 µg/mL in methanol).

For series [3] the following is noted: long-acting parenteral; cited from earlier work.
Series [4] has as its system HIV. To be noted: cited from earlier work.

A word on the IC50: it is the concentration that gives 50% inhibition. Read a low IC50 as inhibition by little substance. What is called solubility is how much of the substance goes into solution per volume. A low value points to little dissolved substance.

The compound `CCCCCCCCCCCCCC(=O)Oc1c2n(cc(C(=O)NCc3ccc(F)cc3F)c1=O)CC1OCC(C)N1C2=O` (centres unmarked) [MCAB] came in with an IC50 in series [1] of 3.4 nM. For the same compound, in series [2], the “increase in 1-octanol solubility compared to CAB” value came to 30 fold and the concentration in solution (solubility at 24 h) came to 5.6 ± 1.8 µg/mL (≈ 9.1 µM).

As for `C[C@H]1CO[C@@H]2Cn3cc(C(=O)NCc4ccc(F)cc4F)c(=O)c(O)c3C(=O)N12` [CAB, cabotegravir], the midpoint of inhibition in series [1], the IC50, lay at 2.5 nM. Besides, the half-life result in series [3] is “up to 54 days”. The “4 × PA-IC90” value in series [4] (4 times protein-binding-adjusted 90% inhibitory concentration ref 19-22) was 0.66 µg/mL. In addition, the PA-IC90 in series [4] (protein-binding-adjusted ref 24) was 0.166 µg/mL. For the same compound, the solubility at 24 h in series [2] came to 31.9 ± 14.4 µg/mL (≈ 78.7 µM).
